Data reported in patent publication US20240400591A1 (Jacobio Pharmaceuticals Co., Ltd., priority 2021, published 2024).
Read-outs that look alike come from different tables or passages of the source.

Legend:
[1] = tested on: NUGC-3_P53_Luc single clonal cell line (p53 Y220C); assay: Reporter gene assay (p53 RE luciferase); type: cell-based; details: luciferase reporter, 6 hours, normalized to Ref-1a (10 μM) high control, read-out: p53(Y220C)_NUGC-3 EC50
Outline: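 NUGC-3 cells stably carrying a p53 RE-driven luc2P reporter, washed free of phenol red, exposed to compound for 6 h at 37 °C; luminescence read. Activity normalised between DMSO (low) and Ref-1a 10 μM (high) controls; EC50 from 4-parameter logistic fit or Excel as concentration giving 50% activity.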

NUGC4 (P53 WT) = assay: Cell viability assay (CellTiter-Glo, 6 days), NUGC4; type: cell-based; details: cell viability, 6 days, CellTiter-Glo, read-out: NUGC4 (P53 WT) IC50
Outline: (§1)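 Cells seeded overnight at 37 °C, then exposed to compounds in medium for 6 days. Viability read by CellTiter-Glo luminescence, normalized to DMSO cell wells (high) and medium-only wells (low); IC50 taken as concentration giving 50% viability from 4-parameter logistic fit.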

[2] = biological target: T1, His-p53 Y220C (94-294) protein (Homo sapiens, UniProt P04637, Y220C); assay: In vitro DNA binding assay (HTRF); type: biochemical; details: % activation normalized to 2 μM Ref-1a high control
T1 construct: His-p53 Y220C (94-294) protein

NUGC3 (P53 Y220C) = assay: Cell viability assay (CellTiter-Glo, 6 days), NUGC3; type: cell-based; details: cell viability, 6 days, CellTiter-Glo, read-out: NUGC3 (P53 Y220C) IC50
Outline: as §1

| Compound | EC50 [2] | EC50 ([1]; Homo sapiens, NUGC-3) | IC50 (NUGC4 (P53 WT); Homo sapiens, NUGC-4, 144 h) | IC50 (NUGC3 (P53 Y220C); Homo sapiens, NUGC-3, 144 h) | EC50 [1] | IC50 (NUGC4 (P53 WT)) | IC50 (NUGC3 (P53 Y220C)) |
| --- | --- | --- | --- | --- | --- | --- | --- |
| COCC(O)CN1CC[C@@H](Nc2cccc3c(CC(F)(F)F)c(C#CCNc4ccc(P(C)(C)=O)cc4OC)sc23)[C@@H](F)C1 (relative stereo) [Example 97, 1-[(Z)-4-[[2-[3-(4-dimethylphosphoryl-2-methoxy-anilino)prop-1-ynyl]-3-(2,2,2-trifluoroethyl)benzothiophen-7-yl]amino]-3-fluoro-1-piperidyl]-3-methoxy-propan-2-ol] | 71 nM | 150 nM | 5720 nM | 960 nM |  |  |  |
| COc1cc(P(C)(C)=O)ccc1NCC#Cc1sc2c(NC3C(C)CN(C)CC3C)cccc2c1CC(F)(F)F (stereo not shown) [Example 132, (3-methoxy-4-((3-(3-(2,2,2-trifluoroethyl)-7-(((E)-1,3,5-trimethylpiperidin-4-yl)amino)benzo[b]thiophen-2-yl)prop-2-yn-1-yl)amino)phenyl)dimethylphosphine oxide] | 59 nM |  |  |  | 260 nM | 3080 nM | 820 nM |
| COc1cc(C(=O)NC2CCN(C)CC2(F)F)ccc1NCC#Cc1sc2c(N[C@@H]3CCN(C)C[C@@H]3F)cccc2c1CC(F)(F)F (relative stereo) [Example 94, N-(3,3-difluoro-1-methylpiperidin-4-yl)-4-((3-(7-(((Z)-3-fluoro-1-methylpiperidin-4-yl)amino)-3-(2,2,2-trifluoroethyl)benzo[b]thiophen-2-yl)prop-2-yn-1-yl)amino)-3-methoxybenzamide] | 85 nM | 190 nM | 2750 nM | 1840 nM |  |  |  |
| COc1cc(S(C)(=O)=O)ccc1NCC#Cc1cc2c(N[C@H]3CCN(C)C[C@H]3F)cccc2n1CC(F)(F)F [Ref-1b, N-((3R,4S)-3-fluoro-1-methylpiperidin-4-yl)-2-(3-((2-methoxy-4-(methylsulfonyl)phenyl)amino)prop-1-yn-1-yl)-1-(2,2,2-trifluoroethyl)-1H-indol-4-amine, reference compound] | 96 nM | 200 nM | 12500 nM | 1920 nM |  |  |  |
| COCCNC(=O)c1ccc(NCC#Cc2sc3c(N[C@@H]4CCN(C)C[C@@H]4F)cccc3c2CC(F)(F)F)c(OC)c1 (relative stereo) [Example 85, 4-((3-(7-(((Z)-3-fluoro-1-methylpiperidin-4-yl)amino)-3-(2,2,2-trifluoroethyl)benzo[b]thiophen-2-yl)prop-2-yn-1-yl)amino)-3-methoxy-N-(2-methoxyethyl)benzamide] | 75 nM | 220 nM | 8240 nM | 1540 nM |  |  |  |
| COc1cc(P(C)(C)=O)ccc1NCC#Cc1sc2c(NC3CCN(CC4CC4)C[C@@H]3F)cccc2c1CC(F)(F)F (mixture of isomers) [Example 102, (4-((3-(7-(((Z)-1-(cyclopropylmethyl)-3-fluoropiperidin-4-yl)amino)-3-(2,2,2-trifluoroethyl)benzo[b]thiophen-2-yl)prop-2-yn-1-yl)amino)-3-methoxyphenyl)dimethylphosphine oxide] | 64 nM | 110 nM | 1920 nM | 810 nM |  |  |  |
| COc1cc(P(C)(C)=O)ccc1NCC#Cc1sc2c(NC3C4CCC3CN(C)C4)cccc2c1CC(F)(F)F (stereo not shown) [Example 124, (3-methoxy-4-((3-(7-((3-methyl-3-azabicyclo[3.2.1]octan-8-yl)amino)-3-(2,2,2-trifluoroethyl)benzo[b]thiophen-2-yl)prop-2-yn-1-yl)amino)phenyl)dimethylphosphine oxide] | 143 nM | 470 nM | 7230 nM | 2310 nM |  |  |  |

Now those with a lower EC50 [2], led by results:

| EC50 [2] | Compound | EC50 ([1]; Homo sapiens, NUGC-3) | IC50 (NUGC4 (P53 WT); Homo sapiens, NUGC-4, 144 h) | IC50 (NUGC3 (P53 Y220C); Homo sapiens, NUGC-3, 144 h) | EC50 [1] | IC50 (NUGC4 (P53 WT)) | IC50 (NUGC3 (P53 Y220C)) |
| --- | --- | --- | --- | --- | --- | --- | --- |
| 18 nM | COc1cc(P(C)(C)=O)ccc1NCC#Cc1sc2c(NC3CCN(C)CC3F)cccc2c1C(O)C(F)(F)F (racemic) [Example 188, (4-((3-(7-((3-fluoro-1-methylpiperidin-4-yl)amino)-3-(2,2,2-trifluoro-1-hydroxyethyl)benzo[b]thiophen-2-yl)prop-2-yn-1-yl)amino)-3-methoxyphenyl)dimethylphosphine oxide(racemic)] | 60 nM | 40600 nM | 1900 nM |  |  |  |
| 43 nM | COc1nc(P(C)(C)=O)ncc1NCC#Cc1sc2c(N[C@@H]3CCN(C)C[C@@H]3F)cccc2c1CC(F)(F)F [Example 208, (5-((3-(7-(((3S,4R)-3-fluoro-1-methylpiperidin-4-yl)amino)-3-(2,2,2-trifluoroethyl)benzo[b]thiophen-2-yl)prop-2-yn-1-yl)amino)-4-methoxypyrimidin-2-yl)dimethylphosphine oxide] | 710 nM | 13700 nM | 2130 nM |  |  |  |
| 19 nM | CN1CCC(Nc2cccc3c(CC(F)(F)F)c(C#CCNc4ccc(P(C)(C)=O)c5c4OCC5)sc23)C(F)C1 (stereo not shown) [Example 152, (7-((3-(7-(((Z)-3-fluoro-1-methylpiperidin-4-yl)amino)-3-(2,2,2-trifluoroethyl)benzo[b]thiophen-2-yl)prop-2-yn-1-yl)amino)-2,3-dihydrobenzofuran-4-yl)dimethylphosphine oxide] |  |  |  | 120 nM | 6690 nM | 1020 nM |
| 46 nM | COc1cc(P2(=O)CCN(C(=O)C3CC3)CC2)ccc1NCC#Cc1sc2c(N[C@@H]3CCN(C)C[C@@H]3F)cccc2c1CC(F)(F)F [Example 149, cyclopropyl(4-(4-((3-(7-(((3S,4R)-3-fluoro-1-methylpiperidin-4-yl)amino)-3-(2,2,2-trifluoroethyl)benzo[b]thiophen-2-yl)prop-2-yn-1-yl)amino)-3-methoxyphenyl)-4-oxido-1,4-azaphosphinan-1-yl)methanone] | 90 nM | 3700 nM | 370 nM |  |  |  |
| 42 nM | [2H]C([2H])([2H])Oc1cc(P(C)(C)=O)ccc1NCC#Cc1sc2c(N[C@@H]3CCN(C4CCOCC4)C[C@@H]3F)cccc2c1CC(F)(F)F [Example 184, (4-((3-(7-(((3S,4R)-3-fluoro-1-(tetrahydro-2H-pyran-4-yl)piperidin-4-yl)amino)-3-(2,2,2-trifluoroethyl)benzo[b]thiophen-2-yl)prop-2-yn-1-yl)amino)-3-(methoxy-d3)phenyl)dimethylphosphine oxide] | 100 nM | 4460 nM | 440 nM |  |  |  |
| 42 nM | CN1CC[C@@H](Nc2cccc3c(CC(F)(F)F)c(C#CCNc4ccc(P(C)(C)=O)cc4C(=O)NC4CC4)sc23)[C@@H](F)C1 [Example 215, N-cyclopropyl-5-(dimethylphosphoryl)-2-((3-(7-(((3S,4R)-3-fluoro-1-methylpiperidin-4-yl)amino)-3-(2,2,2-trifluoroethyl)benzo[b]thiophen-2-yl)prop-2-yn-1-yl)amino)benzamide] | 140 nM | 37300 nM | 370 nM |  |  |  |
